Test results as given in ChEMBL document CHEMBL3769327, “Emerging targets and new small molecule therapies in Parkinson's disease treatment” (Bioorg Med Chem, 2016).

Key:
[1] = Inhibition of human sPLA2 expressed in Escherichia coli assessed as release of [14C]oleate
UT7 = assay: Induction of cell proliferation in human UT7 cells at 10 uM after 42 hrs by thymidine incorporation assay; assay type: functional
[2] = target: Sodium-dependent serotonin transporter (Homo sapiens, UniProt P31645); assay: Inhibition of recombinant human 5-HT transporter expressed in HEK293 cells assessed as reduction in [3H]-5-HT reuptake; assay type: cell-based
[3] = target: Sodium-dependent noradrenaline transporter (Homo sapiens, UniProt P23975); assay: Inhibition of recombinant human norepinephrine transporter assessed as reduction in [3H]-NA reuptake
[4] = target: Sodium-dependent dopamine transporter (Homo sapiens, UniProt Q01959); assay: Inhibition of recombinant human DA transporter assessed as reduction in [3H]-DA reuptake
[5] = Inhibition of NAT in Wistar rat synaptosomes assessed as [3H]-NA reuptake by liquid scintillation counting; assay type: subcellular
[6] = target: Sodium-dependent serotonin transporter (Rattus norvegicus, UniProt P31652); assay: Inhibition of 5-HT in Wistar rat synaptosomes assessed as [3H]-5-HT reuptake by liquid scintillation counting; assay type: subcellular
[7] = target: Sodium-dependent dopamine transporter (Rattus norvegicus, UniProt P23977); assay: Inhibition of DAT in Wistar rat synaptosomes assessed as [3H]-DA reuptake by liquid scintillation counting; assay type: subcellular
[8] = target: Voltage-gated inwardly rectifying potassium channel KCNH2 (Homo sapiens, UniProt Q12809); assay: Inhibition of human ERG channel tail current
[9] = Inhibition of recombinant human sPLA2 after 30 mins microtiter plate assay

Sequence of Sodium-dependent dopamine transporter (Rattus norvegicus, UniProt P23977) (P23977 whole entry): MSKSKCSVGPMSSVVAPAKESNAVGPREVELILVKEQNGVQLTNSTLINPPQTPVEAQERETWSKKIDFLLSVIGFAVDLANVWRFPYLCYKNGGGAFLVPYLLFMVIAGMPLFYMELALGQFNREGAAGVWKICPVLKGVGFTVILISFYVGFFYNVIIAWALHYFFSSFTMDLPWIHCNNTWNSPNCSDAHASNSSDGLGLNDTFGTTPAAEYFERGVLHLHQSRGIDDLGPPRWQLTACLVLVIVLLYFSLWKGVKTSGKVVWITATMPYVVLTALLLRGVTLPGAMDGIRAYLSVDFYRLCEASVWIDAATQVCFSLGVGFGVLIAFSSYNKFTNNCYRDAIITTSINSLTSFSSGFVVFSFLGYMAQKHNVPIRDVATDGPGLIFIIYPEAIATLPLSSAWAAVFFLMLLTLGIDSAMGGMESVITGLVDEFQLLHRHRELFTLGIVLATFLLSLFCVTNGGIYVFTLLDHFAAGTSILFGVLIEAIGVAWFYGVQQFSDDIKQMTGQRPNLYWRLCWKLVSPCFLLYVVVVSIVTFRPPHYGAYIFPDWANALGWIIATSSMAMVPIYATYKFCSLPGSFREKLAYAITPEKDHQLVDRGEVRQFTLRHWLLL
Sequence of Sodium-dependent dopamine transporter (Homo sapiens, UniProt Q01959) (Q01959 whole entry): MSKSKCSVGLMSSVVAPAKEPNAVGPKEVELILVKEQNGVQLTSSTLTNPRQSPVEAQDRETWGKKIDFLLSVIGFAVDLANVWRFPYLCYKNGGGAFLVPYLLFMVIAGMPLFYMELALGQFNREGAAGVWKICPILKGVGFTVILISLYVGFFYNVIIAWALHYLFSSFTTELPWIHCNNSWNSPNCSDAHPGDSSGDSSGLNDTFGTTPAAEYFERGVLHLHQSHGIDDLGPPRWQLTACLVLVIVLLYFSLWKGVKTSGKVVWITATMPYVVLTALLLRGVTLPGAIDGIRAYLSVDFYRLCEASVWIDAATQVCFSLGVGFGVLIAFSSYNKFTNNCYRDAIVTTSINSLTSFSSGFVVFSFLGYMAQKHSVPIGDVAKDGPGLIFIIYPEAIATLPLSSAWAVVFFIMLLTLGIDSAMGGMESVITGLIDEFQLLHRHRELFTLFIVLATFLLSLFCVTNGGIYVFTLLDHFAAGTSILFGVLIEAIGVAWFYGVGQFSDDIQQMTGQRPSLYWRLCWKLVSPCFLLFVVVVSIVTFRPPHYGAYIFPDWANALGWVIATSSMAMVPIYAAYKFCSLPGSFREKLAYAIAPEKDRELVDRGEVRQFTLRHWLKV
Sequence of Sodium-dependent serotonin transporter (Rattus norvegicus, UniProt P31652) (P31652 whole entry): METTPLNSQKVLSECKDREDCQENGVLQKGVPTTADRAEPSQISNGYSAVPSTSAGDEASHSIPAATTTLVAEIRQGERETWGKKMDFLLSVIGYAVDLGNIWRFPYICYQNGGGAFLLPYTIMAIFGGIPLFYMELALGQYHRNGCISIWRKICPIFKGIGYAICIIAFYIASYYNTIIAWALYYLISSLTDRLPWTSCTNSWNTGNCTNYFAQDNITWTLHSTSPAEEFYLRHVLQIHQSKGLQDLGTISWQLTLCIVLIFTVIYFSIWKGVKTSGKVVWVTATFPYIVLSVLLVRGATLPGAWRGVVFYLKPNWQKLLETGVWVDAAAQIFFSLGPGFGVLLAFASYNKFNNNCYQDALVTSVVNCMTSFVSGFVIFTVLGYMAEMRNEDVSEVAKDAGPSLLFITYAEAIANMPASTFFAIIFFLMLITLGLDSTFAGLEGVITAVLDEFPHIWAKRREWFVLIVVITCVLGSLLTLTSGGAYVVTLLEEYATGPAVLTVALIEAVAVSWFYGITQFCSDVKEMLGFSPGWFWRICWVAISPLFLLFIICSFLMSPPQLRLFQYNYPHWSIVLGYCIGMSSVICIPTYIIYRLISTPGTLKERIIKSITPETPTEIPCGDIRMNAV
Sequence of Sodium-dependent serotonin transporter (Homo sapiens, UniProt P31645) (P31645 whole entry): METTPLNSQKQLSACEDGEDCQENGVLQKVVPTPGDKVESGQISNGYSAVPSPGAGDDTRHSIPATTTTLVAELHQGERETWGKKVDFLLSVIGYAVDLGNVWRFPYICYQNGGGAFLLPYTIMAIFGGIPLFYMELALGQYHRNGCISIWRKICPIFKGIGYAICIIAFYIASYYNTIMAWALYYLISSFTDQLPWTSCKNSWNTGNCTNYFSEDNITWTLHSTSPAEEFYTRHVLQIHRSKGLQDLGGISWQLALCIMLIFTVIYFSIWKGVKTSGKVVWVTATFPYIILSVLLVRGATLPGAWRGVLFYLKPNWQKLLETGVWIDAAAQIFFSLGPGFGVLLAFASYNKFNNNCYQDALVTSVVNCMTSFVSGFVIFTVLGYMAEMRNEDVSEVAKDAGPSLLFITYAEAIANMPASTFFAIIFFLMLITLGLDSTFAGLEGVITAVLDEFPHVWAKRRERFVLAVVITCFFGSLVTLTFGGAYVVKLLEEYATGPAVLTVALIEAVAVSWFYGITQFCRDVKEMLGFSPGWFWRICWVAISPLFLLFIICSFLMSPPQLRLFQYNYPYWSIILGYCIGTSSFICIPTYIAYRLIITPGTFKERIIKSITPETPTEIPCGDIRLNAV
Sequence of Sodium-dependent noradrenaline transporter (P23975 whole entry): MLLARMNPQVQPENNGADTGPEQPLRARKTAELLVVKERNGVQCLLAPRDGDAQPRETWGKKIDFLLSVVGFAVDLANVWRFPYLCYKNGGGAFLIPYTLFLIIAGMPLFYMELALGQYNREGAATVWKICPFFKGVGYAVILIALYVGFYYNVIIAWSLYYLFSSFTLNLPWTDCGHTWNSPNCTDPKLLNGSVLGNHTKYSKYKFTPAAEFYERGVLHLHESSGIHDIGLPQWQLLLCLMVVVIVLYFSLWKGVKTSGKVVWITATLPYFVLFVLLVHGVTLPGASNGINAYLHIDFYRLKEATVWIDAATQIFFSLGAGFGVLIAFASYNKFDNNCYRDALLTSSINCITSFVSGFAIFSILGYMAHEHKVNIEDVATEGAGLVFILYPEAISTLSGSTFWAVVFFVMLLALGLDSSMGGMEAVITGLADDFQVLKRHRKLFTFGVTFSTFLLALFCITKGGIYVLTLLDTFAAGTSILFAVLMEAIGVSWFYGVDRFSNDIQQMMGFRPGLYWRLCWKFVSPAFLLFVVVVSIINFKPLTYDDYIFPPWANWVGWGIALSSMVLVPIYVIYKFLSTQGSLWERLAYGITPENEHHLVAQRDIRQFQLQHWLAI
Sequence of Voltage-gated inwardly rectifying potassium channel KCNH2 (Q12809 whole entry): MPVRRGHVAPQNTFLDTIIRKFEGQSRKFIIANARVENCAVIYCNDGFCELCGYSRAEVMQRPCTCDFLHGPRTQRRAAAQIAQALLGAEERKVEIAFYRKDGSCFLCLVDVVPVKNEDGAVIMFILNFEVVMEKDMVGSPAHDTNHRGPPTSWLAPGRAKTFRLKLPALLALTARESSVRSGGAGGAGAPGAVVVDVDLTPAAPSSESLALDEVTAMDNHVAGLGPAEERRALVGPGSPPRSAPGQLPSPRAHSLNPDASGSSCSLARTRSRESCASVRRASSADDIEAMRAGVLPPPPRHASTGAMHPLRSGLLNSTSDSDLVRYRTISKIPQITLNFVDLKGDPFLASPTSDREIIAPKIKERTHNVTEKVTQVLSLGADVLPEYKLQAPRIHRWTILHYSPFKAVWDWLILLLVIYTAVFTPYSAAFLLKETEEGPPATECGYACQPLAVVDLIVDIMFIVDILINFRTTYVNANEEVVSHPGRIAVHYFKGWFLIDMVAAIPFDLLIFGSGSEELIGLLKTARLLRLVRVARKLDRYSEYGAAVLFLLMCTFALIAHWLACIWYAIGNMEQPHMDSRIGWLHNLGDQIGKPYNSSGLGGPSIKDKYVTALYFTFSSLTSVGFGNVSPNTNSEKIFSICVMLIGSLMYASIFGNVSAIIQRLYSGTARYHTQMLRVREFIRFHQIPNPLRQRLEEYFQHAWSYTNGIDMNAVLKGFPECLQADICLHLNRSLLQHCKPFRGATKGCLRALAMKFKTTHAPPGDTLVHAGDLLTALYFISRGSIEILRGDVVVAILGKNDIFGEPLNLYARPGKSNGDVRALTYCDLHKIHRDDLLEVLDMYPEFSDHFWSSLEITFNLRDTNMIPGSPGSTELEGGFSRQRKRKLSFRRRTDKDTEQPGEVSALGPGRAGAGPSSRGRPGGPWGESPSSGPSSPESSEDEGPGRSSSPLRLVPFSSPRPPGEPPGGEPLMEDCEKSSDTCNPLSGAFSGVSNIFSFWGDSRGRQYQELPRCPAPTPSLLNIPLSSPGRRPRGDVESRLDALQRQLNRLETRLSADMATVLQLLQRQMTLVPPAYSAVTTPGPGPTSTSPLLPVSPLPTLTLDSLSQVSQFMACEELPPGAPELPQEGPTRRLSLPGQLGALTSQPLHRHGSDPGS

SMILES | IC50 [5] | IC50 [6] | IC50 [7] | other results
O=C(O)CC[C@@H](CSc1ccc(Cc2ccccc2)cc1)NC(=O)CCCCCCc1ccccc1 |  |  |  | IC50 [1]: 21 nM
COC(=O)[C@H](CCCCNC(=O)CN(CC(=O)CNc1ccc(OC)cc1)C(=O)C1CCCC(C(=O)N(CC(=O)NCCCC[C@H](NC(=O)OCc2ccccc2)C(=O)OC)CC(=O)NCc2ccc(OC)cc2)C1)NC(=O)OCc1ccccc1 (some centres not stated) |  |  |  | Activity (UT7): 33%
CC(C)C(C)[C@]1(c2ccc3ccccc3c2)CC[C@](C)(O)CC1 (some centres not stated) |  |  |  | IC50 [2]: 18 nM; IC50 [3]: 33 nM; IC50 [4]: 21 nM
CN1C2CCC1CC(Oc1ccc3cc(-c4ccoc4)c(=O)oc3c1)C2 (configuration not stated) | 3.8 nM | 2.9 nM | 70 nM | 
Cc1ccc(C2CC3CCC(C2)N3C)cc1Br (configuration not stated) | 15 nM | 1.4 nM | 13 nM | 
CN1C2CCC1CC(c1ccc3ccccc3c1)C2 (configuration not stated) | 18 nM | 0.23 nM | 34 nM | 
COc1cc2ccc(OC3CC4CCC(C3)N4C)cc2oc1=O (configuration not stated) | 0.48 nM | 10 nM | 9.9 nM | 
CN(C)CC1(c2ccc(Cl)c(Cl)c2)CCCC(O)C1 (configuration not stated) |  |  |  | IC50 [4]: 13 nM
CNC[C@]1(c2ccc3ccccc3c2)CC[C@@](C)(O)CC1 |  |  |  | IC50 [2]: 11 nM; IC50 [4]: 40 nM
CC1=NN(c2ccc(C)c(C)c2)C(=O)/C1=N\Nc1cccc(-c2cccc(C(=O)O)c2)c1O [ELTROMBOPAG] |  |  |  | IC50 [8]: 690 nM
CCc1c(C(=O)C(N)=O)c2c(OCC(=O)O)cccc2n1Cc1ccccc1 [VARESPLADIB] |  |  |  | IC50 [9]: 9 nM
